Experimental data: patent US11332468B2, “Azaindole derivatives as Rho-kinase inhibitors” (CHIESI FARMACEUTICI S.p.A., priority 2017, dated 2022)

What was measured:
Rho kinase 1 (ROCK1) = Rho kinase 1 (ROCK1) (Homo sapiens, UniProt Q13464); test: In vitro Rho kinase inhibitory activity assay (ADP-Glo), ROCK1; format: biochemical; conditions: Ki by Cheng-Prusoff from IC50; 10 μM ATP; range of activity
Method: (§1) The effectiveness of compounds of the invention to inhibit Rho kinase activity can be determined in a […] assay containing 40 mM Tris pH7.5, 20 mM MgC2 0.1 mg/ml BSA, 50 μM DTT and 2.5 μM peptide substrate (Myelin Basic Protein) using an ADP-Glo kit (Promega). Compounds were dissolved in DMSO such that the final concentration of DMSO was 1% in the assay. All reactions/incubations are performed at 25° C. Compound (2 ul) and either Rho kinase 1 or 2 (4 μl) were mixed and incubated for 30 mins. Reactions were initiated by addition of ATP (4 μl) such that the final concentration of ATP in the assay was 10 μM. After a 1 hour incubation 10 μl of ADP-Glo Reagent was added and after a further 45 minute incubation 20 ul of Kinase Detection Buffer was added and the mixture incubated for a further 30 minutes. The luminescent signal was measured on a luminometer. […] Compounds were tested in dose-response format and the inhibition of kinase activity was calculated at each concentration of compound. To determine the IC50 (concentration of compound required to inhibit 50% of the enzyme activity) data were fit to a plot of % inhibition vs Log10 compound concentration using a sigmoidal fit with a variable slope and fixing the maximum to 100% and the minimum to 0%. To determine the Ki values the Cheng-Prusoff equation was utilized (Ki=IC50/(1+[S]/Km)

Rho kinase 2 (ROCK2) = Rho kinase 2 (ROCK2) (Homo sapiens, UniProt O75116); test: In vitro Rho kinase inhibitory activity assay (ADP-Glo), ROCK2; format: biochemical; conditions: Ki by Cheng-Prusoff from IC50; 10 μM ATP; range of activity
Method: as §1

Rho kinase 1 (ROCK1), sequence (Q13464 whole entry): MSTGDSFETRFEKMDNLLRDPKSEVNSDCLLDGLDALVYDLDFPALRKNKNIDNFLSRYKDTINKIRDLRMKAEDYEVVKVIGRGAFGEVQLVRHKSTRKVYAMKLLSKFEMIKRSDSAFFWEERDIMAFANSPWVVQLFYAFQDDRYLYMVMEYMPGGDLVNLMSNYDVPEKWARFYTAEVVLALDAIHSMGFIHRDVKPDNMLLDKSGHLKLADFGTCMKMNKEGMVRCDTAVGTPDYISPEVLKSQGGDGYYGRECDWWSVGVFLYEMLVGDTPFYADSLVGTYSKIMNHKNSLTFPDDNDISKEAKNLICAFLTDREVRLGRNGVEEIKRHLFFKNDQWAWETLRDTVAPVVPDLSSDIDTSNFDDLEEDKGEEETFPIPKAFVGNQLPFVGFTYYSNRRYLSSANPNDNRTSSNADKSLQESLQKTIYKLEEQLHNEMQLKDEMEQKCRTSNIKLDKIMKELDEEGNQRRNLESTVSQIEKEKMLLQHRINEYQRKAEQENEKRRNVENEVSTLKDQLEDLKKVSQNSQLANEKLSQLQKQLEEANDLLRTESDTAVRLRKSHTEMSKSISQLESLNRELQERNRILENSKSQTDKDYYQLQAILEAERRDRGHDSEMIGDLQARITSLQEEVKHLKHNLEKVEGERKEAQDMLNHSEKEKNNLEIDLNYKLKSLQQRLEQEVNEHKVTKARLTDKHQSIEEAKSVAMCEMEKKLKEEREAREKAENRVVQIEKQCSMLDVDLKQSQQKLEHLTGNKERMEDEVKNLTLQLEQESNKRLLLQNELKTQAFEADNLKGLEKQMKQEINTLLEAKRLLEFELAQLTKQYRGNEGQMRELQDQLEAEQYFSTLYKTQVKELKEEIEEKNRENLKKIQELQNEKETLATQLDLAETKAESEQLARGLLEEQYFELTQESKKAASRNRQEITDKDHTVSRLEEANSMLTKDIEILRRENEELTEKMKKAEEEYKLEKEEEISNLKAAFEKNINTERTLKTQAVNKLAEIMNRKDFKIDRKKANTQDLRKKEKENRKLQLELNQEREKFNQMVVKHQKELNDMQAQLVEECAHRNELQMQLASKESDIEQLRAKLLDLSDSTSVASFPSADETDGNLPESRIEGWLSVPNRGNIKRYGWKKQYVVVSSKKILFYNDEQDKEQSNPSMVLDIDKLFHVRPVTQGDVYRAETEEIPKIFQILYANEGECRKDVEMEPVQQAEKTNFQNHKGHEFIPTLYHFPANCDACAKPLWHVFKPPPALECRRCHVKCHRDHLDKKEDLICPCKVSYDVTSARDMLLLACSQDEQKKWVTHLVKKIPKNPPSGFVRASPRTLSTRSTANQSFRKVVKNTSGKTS
Rho kinase 2 (ROCK2), sequence (O75116 whole entry): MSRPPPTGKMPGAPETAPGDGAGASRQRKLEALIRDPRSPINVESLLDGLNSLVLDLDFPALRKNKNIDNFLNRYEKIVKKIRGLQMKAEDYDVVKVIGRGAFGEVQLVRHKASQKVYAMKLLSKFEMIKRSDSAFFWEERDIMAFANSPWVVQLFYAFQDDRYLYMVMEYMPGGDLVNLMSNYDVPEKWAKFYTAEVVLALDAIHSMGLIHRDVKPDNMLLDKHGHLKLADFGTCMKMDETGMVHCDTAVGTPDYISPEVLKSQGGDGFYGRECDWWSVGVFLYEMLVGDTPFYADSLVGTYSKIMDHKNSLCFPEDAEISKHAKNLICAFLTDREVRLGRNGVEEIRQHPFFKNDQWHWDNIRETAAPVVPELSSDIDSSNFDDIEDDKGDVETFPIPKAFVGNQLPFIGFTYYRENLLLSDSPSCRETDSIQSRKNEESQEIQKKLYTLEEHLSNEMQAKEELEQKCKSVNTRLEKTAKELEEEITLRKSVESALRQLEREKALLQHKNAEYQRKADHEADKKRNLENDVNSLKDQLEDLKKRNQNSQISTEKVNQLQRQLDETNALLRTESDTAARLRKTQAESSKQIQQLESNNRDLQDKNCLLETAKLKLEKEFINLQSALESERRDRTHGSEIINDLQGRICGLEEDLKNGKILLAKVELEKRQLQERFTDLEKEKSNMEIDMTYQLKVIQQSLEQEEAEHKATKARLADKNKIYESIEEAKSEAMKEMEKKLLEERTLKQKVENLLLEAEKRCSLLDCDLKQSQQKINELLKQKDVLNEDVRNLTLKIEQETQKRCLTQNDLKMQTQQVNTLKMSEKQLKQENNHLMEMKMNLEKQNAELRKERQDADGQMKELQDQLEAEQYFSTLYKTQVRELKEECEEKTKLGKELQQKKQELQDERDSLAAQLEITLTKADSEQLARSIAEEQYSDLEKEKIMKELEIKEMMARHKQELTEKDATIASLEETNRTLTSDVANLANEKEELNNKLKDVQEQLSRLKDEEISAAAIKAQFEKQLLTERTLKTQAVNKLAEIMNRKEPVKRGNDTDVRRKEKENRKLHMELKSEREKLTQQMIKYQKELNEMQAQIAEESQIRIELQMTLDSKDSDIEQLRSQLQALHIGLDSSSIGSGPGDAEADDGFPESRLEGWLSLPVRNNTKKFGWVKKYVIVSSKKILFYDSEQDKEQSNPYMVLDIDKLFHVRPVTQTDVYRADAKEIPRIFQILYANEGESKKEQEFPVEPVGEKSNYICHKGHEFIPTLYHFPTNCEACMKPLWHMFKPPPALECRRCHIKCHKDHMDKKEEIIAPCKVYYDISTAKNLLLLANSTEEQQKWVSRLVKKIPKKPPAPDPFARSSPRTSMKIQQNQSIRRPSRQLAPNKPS

Row | SMILES | Ki (Rho kinase 1 (ROCK1)) [nM] | Ki (Rho kinase 2 (ROCK2)) [nM]
1 | Cc1c[nH]c2nccc(Oc3ccc(CCN)cc3)c12 [Example 19, 2-(4-((3-methyl-1H-pyrrolo[2,3-b]pyridin-4-yl)oxy)phenyl)ethanamine] | < 5 | < 5
2 | Cc1c[nH]c2ncnc(Oc3ccc(CCN)cc3)c12 [Example 8, 2-(4-((5-methyl-7H-pyrrolo[2,3-d]pyrimidin-4-yl)oxy)phenyl)ethanamine] | > 50 | > 50
3 | Cc1c[nH]c2nccc(Oc3ccc4c(c3)CNCCC4)c12 [Example 16, 8-((3-methyl-1H-pyrrolo[2,3-b]pyridin-4-yl)oxy)-2,3,4,5-tetrahydro-1H-benzo[c]azepine] | 5 to 50 | < 5
4 | Cc1c[nH]c2nccc(Oc3ccc(CN)cc3)c12 [Example 21, (4-((3-methyl-1H-pyrrolo[2,3-b]pyridin-4-yl)oxy)phenyl)methanamine] | 5 to 50 | < 5
5 | Cc1c[nH]c2nccc(Oc3ccc4c(c3)CCNCC4)c12 [Example 5, 7-((3-methyl-1H-pyrrolo[2,3-b]pyridin-4-yl)oxy)-2,3,4,5-tetrahydro-1H-benzo[d]azepine] | < 5 | < 5
6 | NCCc1ccc(Oc2ccnc3[nH]ccc23)cc1 [Example 4, 2-(4-((1H-pyrrolo[2,3-b]pyridin-4-yl)oxy)phenyl)ethanamine] | 5 to 50 | 5 to 50
7 | Cc1c[nH]c2nccc(Oc3ccc(C(C)N)cc3)c12 (stereo not drawn) [Example 24, 1-(4-((3-methyl-1H-pyrrolo[2,3-b]pyridin-4-yl)oxy)phenyl)ethanamine] | 5 to 50 | < 5
8 | Cc1c[nH]c2nccc(Oc3ccc4c(c3)CN[C@@H](CO)C4)c12 [Example 39, (R)-(7-((3-Methyl-1H-pyrrolo[2,3-b]pyridin-4-yl)oxy)-1,2,3,4-tetrahydroisoquinolin-3-yl)methanol] | < 5 | < 5
9 | Cc1c[nH]c2nccc(Oc3ccc(CCN4CCCC4)cc3)c12 [Example 22, 3-methyl-4-(4-(2-(pyrrolidin-1-yl)ethyl)phenoxy)-1H-pyrrolo[2,3-b]pyridine] | 5 to 50 | 5 to 50
10 | Cc1c[nH]c2ncnc(Oc3ccc(CN)cc3)c12 [Example 9, (4-((5-methyl-7H-pyrrolo[2,3-d]pyrimidin-4-yl)oxy)phenyl)methanamine] | > 50 | > 50
11 | Cc1c[nH]c2nccc(Oc3ccc(CN4CCOCC4)cc3)c12 [Example 27, 4-(4-((3-Methyl-1H-pyrrolo[2,3-b]pyridin-4-yl)oxy)benzyl)morpholine] | > 50 | > 50
12 | Cc1c[nH]c2ncnc(Oc3ccc(C4CCNC4)cc3)c12 (stereo not drawn) [Example 7, 5-methyl-4-(4-(pyrrolidin-3-yl)phenoxy)-7H-pyrrolo[2,3-d]pyrimidine] | > 50 | > 50
13 | Cc1c[nH]c2ncnc(Oc3ccc4c(c3)CNCC4)c12 [Example 6, 7-((5-methyl-7H-pyrrolo[2,3-d]pyrimidin-4-yl)oxy)-1,2,3,4-tetrahydroisoquinoline] | 5 to 50 | 5 to 50
14 | Cc1c[nH]c2nccc(Oc3ccc(C4CNC4)cc3)c12 [Example 17, 4-(4-(azetidin-3-yl)phenoxy)-3-methyl-1H-pyrrolo[2,3-b]pyridine] | 5 to 50 | < 5
15 | CNCc1ccc(Oc2ccnc3[nH]cc(C)c23)cc1 [Example 3, N-methyl-1-(4-((3-methyl-1H-pyrrolo[2,3-b]pyridin-4-yl)oxy)phenyl)methanamine] | 5 to 50 | 5 to 50
16 | Cc1c[nH]c2nccc(Oc3ccc4c(c3)CNCC4)c12 [Example 1, 7-((3-Methyl-1H-pyrrolo[2,3-b]pyridin-4-yl)oxy)-1,2,3,4-tetrahydroisoquinoline] | < 5 | < 5
17 | Cc1c[nH]c2nccc(Oc3ccc(C[C@H](N)CO)cc3)c12 [Example 37, (S)-2-amino-3-(4-((3-methyl-1H-pyrrolo[2,3-b]pyridin-4-yl)oxy)phenyl)propan-1-ol] | < 5 | < 5
18 | Cc1c[nH]c2nccc(Oc3ccc(C4CCNC4)cc3)c12 (stereo not drawn) [Example 20, 3-methyl-4-(4-(pyrrolidin-3-yl)phenoxy)-1H-pyrrolo[2,3-b]pyridine] | < 5 | < 5
19 | N#Cc1c[nH]c2nccc(Oc3ccc4c(c3)CNCC4)c12 [Example 34, 4-((1,2,3,4-Tetrahydroisoquinolin-7-yl)oxy)-1H-pyrrolo[2,3-b]pyridine-3-carbonitrile] | < 5 | < 5

Row | SMILES | Ki (Rho kinase 1 (ROCK1)) [nM] | Ki (Rho kinase 2 (ROCK2)) [nM]
20 | Cc1c[nH]c2nccc(Oc3ccc(CNC4CCN(C)CC4)cc3)c12 [Example 30, 1-methyl-N-(4-((3-methyl-1H-pyrrolo[2,3-b]pyridin-4-yl)oxy)benzyl)piperidin-4-amine] | 5 to 50 | 5 to 50
21 | Cc1c[nH]c2nccc(Oc3ccc(C(C)N)cc3F)c12 (stereo not drawn) [Example 23, 1-(3-fluoro-4-((3-methyl-1H-pyrrolo[2,3-b]pyridin-4-yl)oxy)phenyl)ethanamine] | < 5 | < 5
22 | Cc1c[nH]c2nccc(Oc3ccc4c(c3)CC(N)C4)c12 (stereo not drawn) [Example 14, 5-((3-methyl-1H-pyrrolo[2,3-b]pyridin-4-yl)oxy)-2,3-dihydro-1H-inden-2-amine] | 5 to 50 | < 5
23 | Cc1c[nH]c2nccc(Oc3ccc(C[C@H](N)CO)cc3F)c12 [Example 36, (S)-2-amino-3-(3-fluoro-4-((3-methyl-1H-pyrrolo[2,3-b]pyridin-4-yl)oxy)phenyl)propan-1-ol] | < 5 | < 5
24 | Cc1c[nH]c2nccc(Oc3ccc(CNC4CCOCC4)cc3)c12 [Example 28, N-(4-((3-methyl-1H-pyrrolo[2,3-b]pyridin-4-yl)oxy)benzyl)tetrahydro-2H-pyran-4-amine] | 5 to 50 | 5 to 50
25 | Cc1c[nH]c2nccc(Oc3ccc(C(N)CO)cc3)c12 (stereo not drawn) [Example 38, 2-amino-2-(4-((3-methyl-1H-pyrrolo[2,3-b]pyridin-4-yl)oxy)phenyl)ethanol] | 5 to 50 | < 5
26 | Cc1c[nH]c2nccc(Oc3ccc(C4CNCCN4)cc3)c12 (stereo not drawn) [Example 13, 3-methyl-4-(4-(piperazin-2-yl)phenoxy)-1H-pyrrolo[2,3-b]pyridine] | 5 to 50 | 5 to 50
27 | Cc1c[nH]c2nccc(Oc3ccc(CNCCO)cc3)c12 [Example 31, 2-((4-((3-methyl-1H-pyrrolo[2,3-b]pyridin-4-yl)oxy)benzyl)amino)ethanol] | 5 to 50 | 5 to 50
28 | Cc1c[nH]c2nccc(Oc3ccc4c(c3)CCCNC4)c12 [Example 15, 7-((3-methyl-1H-pyrrolo[2,3-b]pyridin-4-yl)oxy)-2,3,4,5-tetrahydro-1H-benzo[c]azepine] | 5 to 50 | 5 to 50
29 | Cc1c[nH]c2nccc(Oc3ccc(C4CCCN4)cc3)c12 (single isomer, unassigned) [Example 18A, 3-methyl-4-(4-(pyrrolidin-2-yl)phenoxy)-1H-pyrrolo[2,3-b]pyridine] | 5 to 50 | < 5
30 | Cc1c[nH]c2nccc(Oc3ccc(CN4CCC5(CCNC5)C4)cc3)c12 (stereo not drawn) [Example 32, 4-(4-(2,7-diazaspiro[4.4]nonan-2-ylmethyl)phenoxy)-3-methyl-1H-pyrrolo[2,3-b]pyridine] | 5 to 50 | 5 to 50
31 | Cc1c[nH]c2nccc(Oc3ccc4c(c3)CCNC4)c12 [Example 11, 6-((3-methyl-1H-pyrrolo[2,3-b]pyridin-4-yl)oxy)-1,2,3,4-tetrahydroisoquinoline] | 5 to 50 | 5 to 50
32 | Cc1c[nH]c2nccc(Oc3ccc(CN4CCN(C)CC4)cc3)c12 [Example 33, 3-methyl-4-(4-((4-methylpiperazin-1-yl)methyl)phenoxy)-1H-pyrrolo[2,3-b]pyridine] | > 50 | 5 to 50
33 | Cc1c[nH]c2nccc(Oc3ccc(C4CCCN4)cc3)c12 (racemic) [Example 18, 3-methyl-4-(4-(pyrrolidin-2-yl)phenoxy)-1H-pyrrolo[2,3-b]pyridine] | 5 to 50 | 5 to 50
34 | Cc1c[nH]c2nccc(Oc3ccc(C4CCCN4)cc3)c12 (single isomer, unassigned) [Example 18B, 3-methyl-4-(4-(pyrrolidin-2-yl)phenoxy)-1H-pyrrolo[2,3-b]pyridine] | – | 5 to 50
35 | Cc1c[nH]c2nccc(Oc3ccc4c(c3)CNC4)c12 [Example 2, 4-(isoindolin-5-yloxy)-3-methyl-1H-pyrrolo[2,3-b]pyridine] | < 5 | < 5
36 | Cc1c[nH]c2nccc(Oc3ccc(C(C)(C)N)cc3)c12 [Example 25, 2-(4-((3-methyl-1H-pyrrolo[2,3-b]pyridin-4-yl)oxy)phenyl)propan-2-amine] | 5 to 50 | < 5
37 | Cc1c[nH]c2nccc(Oc3ccc4c(c3)CN(C)CC4)c12 [Example 10, 2-methyl-7-((3-methyl-1H-pyrrolo[2,3-b]pyridin-4-yl)oxy)-1,2,3,4-tetrahydroisoquinoline] | < 5 | < 5
38 | NCc1cc(F)c(Oc2ccnc3[nH]ccc23)c(F)c1 [Example 35, (4-((1H-Pyrrolo[2,3-b]pyridin-4-yl)oxy)-3,5-difluorophenyl)methanamine] | 5 to 50 | < 5
